What was measured:
HepG2 cells = assay: DCFH-DA cell-based antioxidant assay (H2O2-induced oxidation), HepG2; details: Homo sapiens, 1 h compound, 100 μM H2O2, read-out: DCFDH-DA IC50 ± SEM HepG2
Method: (§1) HepG2 cells were cultured in Eagle’s Minimum Essential Medium (MEM, Euroclone S.p.A., Pero, MI, Italy), supplemented with 10% Fetal Bovine Serum (FBS, Euroclone S.p.A., Pero, MI, Italy), 1% L-glutamine (Euroclone S.p.A., Pero, MI, Italy), 100 U/mL penicillin/streptomycin (Euroclone S.p.A., Pero, MI, Italy), 1% Non-Essential Amino Acids (NEAA, Euroclone S.p.A., Pero, MI, Italy). SH-SY5Y cells were grown in a 1:1 mixture of Dulbecco’s modified Eagle’s medium (DMEM)—high glucose (Euroclone S.p.A., Pero, MI, Italy) and Ham’s F12 Medium (Euroclone S.p.A., Pero, MI, Italy) supplemented with 10% FBS, 1% L-glutamine and 100 U/mL penicillin/streptomycin. For cell assays, cells were trypsinized using Trypsin-EDTA 1X in PBS (Euroclone S.p.A., Pero, MI, Italy).
(§2) According to a slightly modified procedure already reported in the literature, the generation of ROS was determined using an oxidation-sensitive fluorescent probe, 2′,7′-dichlorodihydrofluorescein diacetate (DCFH-DA, D6665; Sigma-Aldrich, St. Louis, MO, USA). Briefly, viable cells were seeded in a black 96-well cell culture plate (Costar, Sigma-Aldrich, St. Louis, MO, USA) and after 24 h were incubated with different concentrations (0.1–100 µM) of each compound for 1 h at 37 °C in 5% CO2. […] After washing using PBS, 100 μM H2O2 in medium without serum was added to each well and the cells were incubated for an additional 30 min. The formation of fluorescent dichlorofluorescein (DCF) due to oxidation of DCFH in the presence of ROS, was read at 530 nm using a microplate reader Tecan Infinite M1000 Pro (Tecan, Cernusco S.N., Italy) and DMSO medium was used for control cells. The results are expressed as mean ± SEM of at least three independent measurements in triplicate.

SH-SY5Y cells [1] = assay: DCFH-DA cell-based antioxidant assay (H2O2-induced oxidation), SH-SY5Y; details: Homo sapiens, SHSY-5Y, 1 h compound, 100 μM H2O2, read-out: DCFDH-DA IC50 ± SEM SHSY-5Y
Method: as §1, §2

SH-SY5Y cells [2] = assay: MTT cell viability assay, SH-SY5Y; type: cell-based; details: 24 h exposure
Method: as §1, with “Human hepatocellular liver carcinoma (HepG2) cell line and human neuroblastoma cell line, SH-SY5Y, were purchased from the American Type Culture Collection (ATCC, Manassas, VA, USA) and maintained at 37 °C in a humidified atmosphere (95% air and 5% carbon dioxide), and they were periodically screened for contamination. HepG2” for “HepG2”
HepG2 and SH-SY5Y cell viability was assessed as previously reported by using a conventional 3-(4,5-dimethylthiazol-2-yl)-2,5-diphenyltetrazolium bromide (MTT) assay. In brief, viable cells were seeded and grown for 24 h into a sterile 96-well cell culture cluster (Corning, Sigma-Aldrich, St. Louis, MO, USA) in a complete medium and maintained at 37 °C in a humidified atmosphere with 5% CO2. The cells were then added with different concentrations of each compound for a period of 1 h or 24 h. At the end, the culture medium was replaced by a solution of 0.5 mg/mL MTT (Sigma-Aldrich, St. Louis, MO, USA) in PBS. After 2 h of incubation at 37 °C in 5% CO2, the supernatant was carefully removed from each well, and the formazan crystals were dissolved in DMSO. The absorbance values were measured at 570 nm using Tecan Infinite M1000 Pro (Tecan, Cernusco S.N., Italy) and DMSO medium as blank solution. The results were reported as % cell viability = [optical density (OD) of tested compound/medium OD of control cells] × 100. The results are expressed as mean ± SEM of at least three independent measurements in triplicate.

Compound | IC50 (HepG2 cells) [µM] | IC50 (SH-SY5Y cells [1]) [µM] | MTT cytotoxicity IC50 ± SEM SHSY-5Y 24 h (SH-SY5Y cells [2])
O=C(NCCN1CCN(Cc2ccccc2F)CC1)c1ccc2c(c1)Nc1ccccc1S2 [Compound 12d, N-(2-(4-(2-Fluorobenzyl)piperazin-1-yl)ethyl)-10H-phenothiazine-2-carboxamide] | 14.6 ± 0.5 | 11.7 ± 1.11 | no cytotoxic effects
O=C(NCC1CCN(Cc2ccccc2)CC1)c1ccc2c(c1)Nc1ccccc1S2 [Compound 11a, N-((1-Benzylpiperidin-4-yl)methyl)-10H-phenothiazine-2-carboxamide] | 8.31 ± 1.4 | 14.1 ± 0.6 | 
CC(=O)N1c2ccccc2Sc2ccc(C(=O)NCCN3CCN(Cc4ccccc4Cl)CC3)cc21 [Compound 13, 10-Acetyl-N-(2-(4-(2-chlorobenzyl)piperazin-1-yl)ethyl)-10H-phenothiazine-2-carboxamide] | 0.63 ± 0.1 | 1.22 ± 0.2 | 
Cc1ccccc1CN1CCC(CNC(=O)c2ccc3c(c2)Nc2ccccc2S3)CC1 [Compound 11c, N-((1-(2-Methylbenzyl)piperidin-4-yl)methyl)-10H-phenothiazine-2-carboxamide] | 17.6 ± 0.5 | 2.11 ± 0.4 | 
O=C(NCCN1CCN(Cc2ccccc2)CC1)c1ccc2c(c1)Nc1ccccc1S2 [Compound 12a, N-(2-(4-Benzylpiperazin-1-yl)ethyl)-10H-phenothiazine-2-carboxamide] | 1.13 ± 0.41 | 2.01 ± 0.61 | 
O=C(NCCN1CCN(Cc2ccccc2Cl)CC1)c1ccc2c(c1)Nc1ccccc1S2 [Compound 12b, N-(2-(4-(2-Chlorobenzyl)piperazin-1-yl)ethyl)-10H-phenothiazine-2-carboxamide] | 18.7 ± 0.2 | 9.1 ± 1.42 | 
O=C(NCC1CCN(Cc2ccccc2Cl)CC1)c1ccc2c(c1)Nc1ccccc1S2 [Compound 11b, N-((1-(2-Chlorobenzyl)piperidin-4-yl)methyl)-10H-phenothiazine-2-carboxamide] | 55.3 ± 1.1 | 1.32 ± 0.2 | 
Cc1ccccc1CN1CCN(CCNC(=O)c2ccc3c(c2)Nc2ccccc2S3)CC1 [Compound 12c, N-(2-(4-(2-Methylbenzyl)piperazin-1-yl)ethyl)-10H-phenothiazine-2-carboxamide] | 4.21 ± 0.81 | 11.3 ± 0.21 | 
COc1cccc(CN2CCC(CNC(=O)c3ccc4c(c3)Nc3ccccc3S4)CC2)c1 [Compound 11e, N-((1-(3-Methoxybenzyl)piperidin-4-yl)methyl)-10H-phenothiazine-2-carboxamide] | 3.21 ± 0.5 | 1.12 ± 0.9 | 
O=C(NCC1CCN(Cc2ccccc2F)CC1)c1ccc2c(c1)Nc1ccccc1S2 [Compound 11d, N-((1-(2-Fluorobenzyl)piperidin-4-yl)methyl)-10H-phenothiazine-2-carboxamide] | 1.82 ± 0.6 | 1.43 ± 0.5 | 

From article PMC9495854, “Novel Phenothiazine/Donepezil-like Hybrids Endowed with Antioxidant Activity for a Multi-Target Approach to the Therapy of Alzheimer’s Disease” (Antioxidants, 2022)
